Data from article PMC9004346, “Development of small cyclic peptides targeting the CK2α/β interface” (Chemical Communications (Cambridge, England), 2022).
Read-outs that look alike come from different tables or passages of the source. *1 amine or outer side, *2 acyl side, *3 side chain or, on linkers, in order; H or OH if unused. Where a SMILES comes first, the peptide text is derived from it. Bridges are numbered along the chain shown (N, C = ends). [ ]: non-standard residue; d: D form. Trp(2-yl) = O=C([C@H](Cc1c([*:3])[nH]c2ccccc12)N[*:1])[*:2]; hCys = N[C@@H](CCS)C(=O)O; Ahx = NCCCCCC(=O)O

Key:
Serum stability test = format: in vitro ADME; settings: 20% human serum in PBS, 37 °C, monitored over 24 h
Experimental: 1.6.3 Serum stability test
500 μL of PBS buffer supplemented with 20% (v/v) of human serum was allocated into an Eppendorf tube and temperature kept at 37 °C for 15 minutes before commencing the experiment. 5 µL of the peptide from 10 mM stock solution in DMSO was added. Caffeine was added as an internal standard (10 μL of a 15 mg/mL solution in MQ water). At specific intervals, 50 µL of the reaction mixture was taken and quenched with 100 µL of a 1:1 mixture of 96% Ethanol:DMSO. The suspension was spun at 13400 g for 10 minutes. 100 μL of the supernatant was analysed using C-18 HPLC with an eluting gradient 5-95% MeCN (0.05% TFA) in water (0.05% TFA) over 15 minutes (90 μL injection volume).
Percentage of intact starting peptide was monitored over 24 h (calculated as the ratio of the area of […]
the peak corresponding to the intact peptide to the area of the peak of caffeine). The experiment was […]
1 M. M. Wiedmann, Y. S. Tan, Y. Wu, S. Aibara, W. Xu, H. F. Sore, C. S. Verma, L. Itzhaki, M.
Stewart, J. D. Brenton and D. R. Spring, Angew. Chemie Int. Ed., 2017, 56, 524–529.
3 G. T. Potter, G. C. Jayson, G. J. Miller and J. M. Gardiner, J. Org. Chem., 2016, 81, 3443–3446.
4 J. Iegre, P. Brear, D. J. Baker, Y. S. Tan, E. L. Atkinson, H. F. Sore, D. H. O’ Donovan, C. S. Verma,
7 C. Puig Duran, F. Albericio Palomera, M. Gongora Benitez, M. Paradis Bas, L. Miret Casals, I. […]

HeLa cells = test: MTT cell viability assay in HeLa cells; format: cell-based; settings: HeLa cells, MTT, 48 h
Experimental: (§1) HeLa cells were maintained in 5% CO2 in DMEM supplemented with 10% FBS, 2 mM L-glutamine, 100 U/mL penicillin and […] streptomycin, in an atmosphere containing 5% CO2.
(§2) Cells were regularly passed and used for experiments within one month after thawing (10-15 […]
(§3) 1.6.2 Cell viability assay
(§4) Cell viability was assayed by 3-(4,5-dimethylthiazol-2-yl)-2,5-diphenyltetrazolium bromide (MTT) colorimetric assay. HeLa cells were plated on 96-well plates (20,000 cells per well in 100 μL). After 24 h, cells were treated with different concentrations of test compounds or vehicle alone (DMSO). One hour before the end of the incubations, 10 μL of MTT solution (5 mg/mL in PBS) were added to each well. Formazan crystals (proportional to the number of viable cells) were then dissolved by the addition of 20 μL/well of a pH 4.7 solution containing 20% (w:v) SDS, 50% (v:v) N,N-dimethylformamide, 2% (v:v) acetic acid, and 25 mM HCl, and quantified by recording the absorbance at 570 nm using an Infinite M200 PRO plate reader (TECAN, Life Sciences). […]

[1] = MTT cell viability assay in HeLa cells; format: cell-based; settings: human
Experimental: as §1, §2, §3, §4

Row | Serum stability (in words) (Serum stability test) | Compound | Effect on cell viability (in words) (HeLa cells) | viability at 48 h, 50 µM [1] [%] | viability at 48 h, 100 µM [1] [%] | viability at 48 h, 50 µM ([1]; HeLa cells, 48 h, 50 μM compound, ±standard deviation, read-out: Cell viability (%) 50 μM compound) [%] | viability at 48 h, 100 µM ([1]; HeLa cells, 48 h, 100 μM compound, ±standard deviation, read-out: Cell viability (%) 100 μM compound) [%]
1 | fully had degraded after 1 h | CC(=O)N[C@@H](CCS)C(=O)N[C@@H](CCCNC(=N)N)C(=O)N[C@@H](CC(C)C)C(=O)N[C@@H](Cc1ccc(O)cc1)C(=O)NCC(=O)N[C@@H](Cc1ccccc1)C(=O)N[C@@H](CCCCN)C(=O)N[C@@H](Cc1c[nH]c2ccccc12)C(N)=O [Peptide P8] (Ac-[hCys]RLYGFKW-NH2) |  |  |  |  | 
2 |  | CC(C)C[C@@H]1NC(=O)[C@H](CCCNC(=N)N)NC(=O)[C@@H](NC(=O)CCCCCNC(=O)CCCCCNC(=O)[C@H](CCCNC(=N)N)NC(=O)[C@H](CCCNC(=N)N)NC(=O)[C@@H](N)CCCNC(=N)N)CCSc2[nH]c3ccccc3c2C[C@@H](C(N)=O)NC(=O)[C@H](CCCCN)NC(=O)[C@H](Cc2ccccc2)NC(=O)CNC(=O)[C@H](Cc2ccc(O)cc2)NC1=O [Peptide R3-P8C9] (H-RRR[Ahx][Ahx][hCys]RLYGFK[Trp(2-yl)]-NH2; thioether 6-13) | large reduction in cell viability | 66 ± 5 | 54 ± 4 |  | 
3 |  | CC(C)C[C@@H]1NC(=O)[C@H](CCCNC(=N)N)NC(=O)[C@@H](NC(=O)CCCCCNC(=O)CCCCCNC(=O)[C@H](CCC(N)=O)NC(=O)[C@@H]2CCCN2C(=O)[C@@H]2CCCN2C(=O)[C@H](CCCNC(=N)N)NC(=O)[C@H](CCCNC(=N)N)NC(=O)[C@H](CCCNC(=N)N)NC(=O)[C@H](CCC(N)=O)NC(=O)[C@H](CCCNC(=N)N)NC(=O)[C@H](CCCNC(=N)N)NC(=O)[C@H](CCCCN)NC(=O)[C@H](CCCCN)NC(=O)[C@H](CCCNC(=N)N)NC(=O)CN)CCSc2[nH]c3ccccc3c2C[C@@H](C(N)=O)NC(=O)[C@H](CCCCN)NC(=O)[C@H](Cc2ccccc2)NC(=O)CNC(=O)[C@H](Cc2ccc(O)cc2)NC1=O [TAT-P8C9] (H-GRKKRRQRRRPPQ[Ahx][Ahx][hCys]RLYGFK[Trp(2-yl)]-NH2; thioether 16-23) | large reduction in cell viability |  |  | 66 ± 4 | 26 ± 7
